Measured values from ChEMBL document CHEMBL1147581, “Development of novel lipid-peptide hybrid compounds with antibacterial activity from natural cationic antibacterial peptides” (Bioorg Med Chem Lett, 2004).
In brackets after ≈: the same amount, converted by molar mass. Activity calls are given as the source filed them. The calls are words filed in the database; no cut-off is given here. Non-standard residues stand in square brackets, D forms with d. Residues, ends and D or L forms follow the SMILES beside them. *: point of attachment. Palmitoleoyl = CCCCCC/C=C\CCCCCCCC(=O)*; PhAc = O=C(Cc1ccccc1)*; Bz = O=C(c1ccccc1)*; Ahx = NCCCCCC(=O)O

Key:
[1] = Stability of the peptide in the presence of mouse serum; assay type: ADME, organism-based
Staphylococcus aureus = assay: Minimum inhibitory concentration against Staphylococcus aureus ATCC 6538; assay type: functional
Candida albicans [2] = assay: Minimum inhibitory concentration against Candida albicans ATCC 36232; NA = not active; assay type: functional, organism-based
Escherichia coli [3] = assay: Minimum inhibitory concentration against Escherichia coli ATCC 25922; NA = not active; assay type: functional, organism-based
[4] = Minimum inhibitory concentration against Micrococcus luteus ATCC 9341; assay type: functional
Mus musculus [5] = organism: Mus musculus; assay: Concentration required for half-maximal lysis of mouse erythrocytes; assay type: functional
Pseudomonas aeruginosa [6] = assay: Minimum inhibitory concentration against Pseudomonas aeruginosa ATCC 9027; NA = not active; assay type: functional, organism-based
Candida albicans [7] = assay: Minimum inhibitory concentration against Candida albicans ATCC 36232; assay type: functional
Escherichia coli [8] = assay: Minimum inhibitory concentration against Escherichia coli ATCC 25922; assay type: functional
Pseudomonas aeruginosa [9] = assay: Minimum inhibitory concentration against Pseudomonas aeruginosa ATCC 9027; assay type: functional
Mus musculus [10] = organism: Mus musculus; assay: Concentration required for half-maximal lysis of mouse erythrocytes; NA = not active; assay type: functional, organism-based

Row | SMILES | half-life [1] [min] | MIC (Staphylococcus aureus) [µg/mL] | MIC (Candida albicans [2]) | MIC (Escherichia coli [3]) | MIC [4] [µg/mL] | HD50 (Mus musculus [5]) [µg/mL] | MIC (Pseudomonas aeruginosa [6]) | MIC (Candida albicans [7]) [µg/mL] | MIC (Escherichia coli [8]) [µg/mL] | MIC (Pseudomonas aeruginosa [9]) [µg/mL] | HD50 (Mus musculus [10])
1 | CC[C@H](C)[C@H](NC(=O)[C@H](Cc1ccc(O)cc1)NC(=O)[C@H](CCCCN)NC(=O)[C@H](CCCCN)NC(C)=O)C(=O)N[C@@H](CCCCN)C(=O)N[C@H](C(=O)N[C@@H](Cc1ccccc1)C(=O)N[C@H](C(=O)N[C@@H](Cc1ccccc1)C(=O)N[C@@H](CCCCN)C(N)=O)C(C)C)C(C)C (Ac-KKYIKVFVFK-NH2) | 30 | 100 (≈ 74.6 µM) | – | – | – | – | – | – | – | – | –
2 | CC(=O)N[C@@H](Cc1ccc(O)cc1)C(=O)N[C@@H](CS)C(=O)N[C@@H](CC(N)=O)C(=O)NCC(=O)N[C@@H](CCCCN)C(=O)N[C@@H](CCCN=C(N)N)C(=O)N[C@H](C(=O)N[C@@H](CS)C(=O)N[C@H](C(=O)N[C@@H](CS)C(=O)N[C@@H](CCCN=C(N)N)C(N)=O)C(C)C)C(C)C (Ac-YCNGKRVCVCR-NH2) | – | 50 (≈ 37.3 µM) | inactive | inactive | 100 (≈ 74.5 µM) | >100 | inactive | – | – | – | –
3 | CC[C@H](C)[C@H](NC(=O)[C@H](Cc1ccc(O)cc1)NC(=O)[C@H](CCCCN)NC(=O)[C@H](CCCCN)NC(=O)CCCCCNC(C)=O)C(=O)N[C@@H](CCCCN)C(=O)N[C@H](C(=O)N[C@@H](Cc1ccccc1)C(=O)N[C@H](C(=O)N[C@@H](Cc1ccccc1)C(=O)N[C@@H](CCCCN)C(N)=O)C(C)C)C(C)C (Ac-[Ahx]KKYIKVFVFK-NH2) | 45 | 6.3 (≈ 4.33 µM) | – | – | – | – | – | – | – | – | –
4 | CC(=O)NCCCCCC(=O)N[C@@H](Cc1ccc(O)cc1)C(=O)N[C@@H](CS)C(=O)N[C@@H](CC(N)=O)C(=O)NCC(=O)N[C@@H](CCCCN)C(=O)N[C@@H](CCCN=C(N)N)C(=O)N[C@H](C(=O)N[C@@H](CS)C(=O)N[C@H](C(=O)N[C@@H](CS)C(=O)N[C@@H](CCCN=C(N)N)C(N)=O)C(C)C)C(C)C (Ac-[Ahx]YCNGKRVCVCR-NH2) | – | > 100 | inactive | inactive | > 100 | >100 | inactive | – | – | – | –
5 | CC[C@H](C)[C@H](NC(=O)[C@H](Cc1ccc(O)cc1)NC(=O)[C@H](CCCCN)NC(=O)[C@H](CCCCN)NC(=O)c1ccccc1)C(=O)N[C@@H](CCCCN)C(=O)N[C@H](C(=O)N[C@@H](Cc1ccccc1)C(=O)N[C@H](C(=O)N[C@@H](Cc1ccccc1)C(=O)N[C@@H](CCCCN)C(N)=O)C(C)C)C(C)C (Bz-KKYIKVFVFK-NH2) [listing 1 of 2 here] | 30 | – | – | – | – | – | – | – | – | – | –
6 | CC[C@H](C)[C@H](NC(=O)[C@H](Cc1ccc(O)cc1)NC(=O)[C@H](CCCCN)NC(=O)[C@H](CCCCN)NC(=O)c1ccccc1)C(=O)N[C@@H](CCCCN)C(=O)N[C@H](C(=O)N[C@@H](Cc1ccccc1)C(=O)N[C@H](C(=O)N[C@@H](Cc1ccccc1)C(=O)N[C@@H](CCCCN)C(N)=O)C(C)C)C(C)C (Bz-KKYIKVFVFK-NH2) [listing 2 of 2 here] | – | 50 (≈ 35.6 µM) | – | – | – | – | – | – | – | – | –
7 | CC(C)[C@H](NC(=O)[C@H](CS)NC(=O)[C@@H](NC(=O)[C@H](CCCN=C(N)N)NC(=O)[C@H](CCCCN)NC(=O)CNC(=O)[C@H](CC(N)=O)NC(=O)[C@H](CS)NC(=O)[C@H](Cc1ccc(O)cc1)NC(=O)[C@@H](N)Cc1ccccc1)C(C)C)C(=O)N[C@@H](CS)C(=O)N[C@@H](CCCN=C(N)N)C(N)=O (H-FYCNGKRVCVCR-NH2) | – | 25 (≈ 17.3 µM) | – | – | 12.5 (≈ 8.64 µM) | >100 | – | 25 (≈ 17.3 µM) | 25 (≈ 17.3 µM) | 25 (≈ 17.3 µM) | –
8 | CC(C)[C@H](NC(=O)[C@H](CS)NC(=O)[C@@H](NC(=O)[C@H](CCCN=C(N)N)NC(=O)[C@H](CCCCN)NC(=O)CNC(=O)[C@H](CC(N)=O)NC(=O)[C@H](CS)NC(=O)[C@H](Cc1ccc(O)cc1)NC(=O)[C@H](Cc1ccccc1)NC(=O)[C@@H](N)CCCCN)C(C)C)C(=O)N[C@@H](CS)C(=O)N[C@@H](CCCN=C(N)N)C(N)=O (H-KFYCNGKRVCVCR-NH2) | – | 6.3 (≈ 4 µM) | – | – | 6.3 (≈ 4 µM) | >100 | – | 12.5 (≈ 7.94 µM) | 25 (≈ 15.9 µM) | 50 (≈ 31.7 µM) | –
9 | CC(C)[C@H](NC(=O)[C@H](CS)NC(=O)[C@@H](NC(=O)[C@H](CCCN=C(N)N)NC(=O)[C@H](CCCCN)NC(=O)CNC(=O)[C@H](CC(N)=O)NC(=O)[C@H](CS)NC(=O)[C@H](Cc1ccc(O)cc1)NC(=O)[C@H](CCCCN)NC(=O)[C@@H](N)CCCCN)C(C)C)C(=O)N[C@@H](CS)C(=O)N[C@@H](CCCN=C(N)N)C(N)=O (H-KKYCNGKRVCVCR-NH2) | – | 6.3 (≈ 4.05 µM) | – | – | 6.3 (≈ 4.05 µM) | >100 | – | 12.5 (≈ 8.03 µM) | 25 (≈ 16.1 µM) | 25 (≈ 16.1 µM) | –
10 | CC[C@H](C)[C@H](NC(=O)[C@H](Cc1ccc(O)cc1)NC(=O)[C@H](CCCCN)NC(=O)[C@@H](N)CCCCN)C(=O)N[C@@H](CCCCN)C(=O)N[C@H](C(=O)N[C@@H](Cc1ccccc1)C(=O)N[C@H](C(=O)N[C@@H](Cc1ccccc1)C(=O)N[C@@H](CCCCN)C(N)=O)C(C)C)C(C)C (H-KKYIKVFVFK-NH2) | 8 | 6.3 (≈ 4.85 µM) | – | – | – | – | – | – | – | – | –
11 | CC(C)[C@H](NC(=O)[C@H](CS)NC(=O)[C@@H](NC(=O)[C@H](CCCN=C(N)N)NC(=O)[C@H](CCCCN)NC(=O)CNC(=O)[C@H](CC(N)=O)NC(=O)[C@H](CS)NC(=O)[C@H](Cc1ccc(O)cc1)NC(=O)[C@@H](N)CCCCN)C(C)C)C(=O)N[C@@H](CS)C(=O)N[C@@H](CCCN=C(N)N)C(N)=O (H-KYCNGKRVCVCR-NH2) | – | 12.5 (≈ 8.75 µM) | – | – | 6.3 (≈ 4.41 µM) | >100 | – | 25 (≈ 17.5 µM) | 50 (≈ 35 µM) | 50 (≈ 35 µM) | –
12 | CC(C)[C@H](NC(=O)[C@H](CS)NC(=O)[C@@H](NC(=O)[C@H](CCCN=C(N)N)NC(=O)[C@H](CCCCN)NC(=O)CNC(=O)[C@H](CC(N)=O)NC(=O)[C@H](CS)NC(=O)[C@@H](N)Cc1ccc(O)cc1)C(C)C)C(=O)N[C@@H](CS)C(=O)N[C@@H](CCCN=C(N)N)C(N)=O (H-YCNGKRVCVCR-NH2) | – | 25 (≈ 19.2 µM) | – | – | 25 (≈ 19.2 µM) | >100 | – | 25 (≈ 19.2 µM) | 12.5 (≈ 9.62 µM) | 50 (≈ 38.5 µM) | –
13 | CC(C)[C@H](NC(=O)[C@H](CS)NC(=O)[C@@H](NC(=O)[C@H](CCCN=C(N)N)NC(=O)[C@H](CCCCN)NC(=O)CNC(=O)[C@H](CC(N)=O)NC(=O)[C@H](CS)NC(=O)[C@H](Cc1ccc(O)cc1)NC(=O)CCCCCN)C(C)C)C(=O)N[C@@H](CS)C(=O)N[C@@H](CCCN=C(N)N)C(N)=O (H-[Ahx]YCNGKRVCVCR-NH2) | – | 50 (≈ 35.4 µM) | inactive | inactive | 50 (≈ 35.4 µM) | >100 | inactive | – | – | – | –
14 | CCCCCC/C=C\CCCCCCCC(=O)N[C@@H](Cc1ccc(O)cc1)C(=O)N[C@@H](CS)C(=O)N[C@@H](CC(N)=O)C(=O)NCC(=O)N[C@@H](CCCCN)C(=O)N[C@@H](CCCN=C(N)N)C(=O)N[C@H](C(=O)N[C@@H](CS)C(=O)N[C@H](C(=O)N[C@@H](CS)C(=O)N[C@@H](CCCN=C(N)N)C(N)=O)C(C)C)C(C)C (Palmitoleoyl-YCNGKRVCVCR-NH2) | – | > 100 | inactive | inactive | > 100 | >100 | inactive | – | – | – | –
15 | CC(C)[C@H](NC(=O)[C@H](CS)NC(=O)[C@@H](NC(=O)[C@H](CCCN=C(N)N)NC(=O)[C@H](CCCCN)NC(=O)CNC(=O)[C@H](CC(N)=O)NC(=O)[C@H](CS)NC(=O)[C@H](Cc1ccc(O)cc1)NC(=O)Cc1ccccc1)C(C)C)C(=O)N[C@@H](CS)C(=O)N[C@@H](CCCN=C(N)N)C(N)=O (PhAc-YCNGKRVCVCR-NH2) | – | 100 (≈ 70.5 µM) | inactive | inactive | > 100 | >100 | inactive | – | – | – | –
16 | CC[C@H](C)[C@H](NC(=O)CN)C(=O)NCC(=O)N[C@@H](CCCCN)C(=O)N[C@@H](Cc1ccccc1)C(=O)N[C@@H](CC(C)C)C(=O)N[C@@H](Cc1c[nH]cn1)C(=O)N[C@@H](CO)C(=O)N[C@@H](C)C(=O)N[C@@H](CCCCN)C(=O)N[C@@H](CCCCN)C(=O)N[C@@H](Cc1ccccc1)C(=O)NCC(=O)N[C@@H](CCCCN)C(=O)N[C@@H](C)C(=O)N[C@@H](Cc1ccccc1)C(=O)N[C@H](C(=O)NCC(=O)N[C@@H](CCC(=O)O)C(=O)N[C@H](C(=O)N[C@@H](CCSC)C(=O)N[C@@H](CC(N)=O)C(=O)N[C@@H](CO)C(=O)O)[C@@H](C)CC)C(C)C [MAGAININ 2] (H-GIGKFLHSAKKFGKAFVGEIMNS-OH) | – | 40 (≈ 16.2 µM) | – | – | 50 (≈ 20.3 µM) | – | – | 50 (≈ 20.3 µM) | 20 (≈ 8.11 µM) | 20 (≈ 8.11 µM) | inactive
17 | CC[C@H](C)[C@H](NC(=O)CN)C(=O)NCC(=O)N[C@@H](C)C(=O)N[C@H](C(=O)N[C@@H](CC(C)C)C(=O)N[C@@H](CCCCN)C(=O)N[C@H](C(=O)N[C@@H](CC(C)C)C(=O)N[C@H](C(=O)N[C@H](C(=O)NCC(=O)N[C@@H](CC(C)C)C(=O)N1CCC[C@H]1C(=O)N[C@@H](C)C(=O)N[C@@H](CC(C)C)C(=O)N[C@H](C(=O)N[C@@H](CO)C(=O)N[C@@H](Cc1c[nH]c2ccccc12)C(=O)N[C@H](C(=O)N[C@@H](CCCCN)C(=O)N[C@@H](CCCNC(=N)N)C(=O)N[C@@H](CCCCN)C(=O)N[C@@H](CCCNC(=N)N)C(=O)N[C@@H](CCC(N)=O)C(=O)N[C@@H](CCC(N)=O)C(N)=O)[C@@H](C)CC)[C@@H](C)CC)[C@@H](C)O)[C@@H](C)O)C(C)C)C(C)C [MELITTIN] | – | – | – | – | 0.78 (≈ 0.274 µM) | – | – | 1.56 (≈ 0.548 µM) | – | – | inactive
